From ChEMBL document CHEMBL1142367, “1H-Pyrazolo[3,4-g]hexahydro-isoquinolines as selective glucocorticoid receptor antagonists with high functional activity” (Bioorg Med Chem Lett, 2008)
pKi: −log10 of the molar value.

Key:
Glucocorticoid receptor [1] = biological target: T1, Glucocorticoid receptor (Homo sapiens, UniProt P04150); experiment: Displacement of [3H]dexamethasone from human recombinant GR
T1 sequence (P04150 whole entry): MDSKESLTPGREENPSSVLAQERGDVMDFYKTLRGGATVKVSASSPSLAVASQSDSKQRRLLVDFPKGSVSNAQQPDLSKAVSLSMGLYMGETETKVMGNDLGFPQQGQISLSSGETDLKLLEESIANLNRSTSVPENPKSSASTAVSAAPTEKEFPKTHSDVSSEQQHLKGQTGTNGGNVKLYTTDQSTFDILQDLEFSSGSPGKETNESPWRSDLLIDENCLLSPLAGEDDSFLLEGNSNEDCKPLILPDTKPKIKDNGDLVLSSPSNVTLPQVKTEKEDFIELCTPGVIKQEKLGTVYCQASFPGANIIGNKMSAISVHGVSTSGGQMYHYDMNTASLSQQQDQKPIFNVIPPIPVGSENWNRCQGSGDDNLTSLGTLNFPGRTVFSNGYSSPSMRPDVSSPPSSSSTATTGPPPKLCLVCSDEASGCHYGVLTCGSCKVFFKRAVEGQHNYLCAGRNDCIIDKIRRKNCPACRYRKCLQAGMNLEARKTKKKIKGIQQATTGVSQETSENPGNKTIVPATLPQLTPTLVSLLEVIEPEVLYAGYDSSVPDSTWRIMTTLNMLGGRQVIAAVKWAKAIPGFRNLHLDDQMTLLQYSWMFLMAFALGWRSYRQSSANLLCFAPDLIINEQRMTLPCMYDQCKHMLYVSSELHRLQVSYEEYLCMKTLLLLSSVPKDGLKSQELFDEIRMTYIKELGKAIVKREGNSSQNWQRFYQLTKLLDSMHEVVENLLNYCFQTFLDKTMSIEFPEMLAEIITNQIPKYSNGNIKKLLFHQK

Glucocorticoid receptor [2] = biological target: T1, Glucocorticoid receptor; experiment: Antagonist activity at GR in SW1353/MMTV5 cells assessed as inhibition of dexamethasone-induced luciferase expression; format: functional, cell-based

Row | pKi (Glucocorticoid receptor [1]) | pKi (Glucocorticoid receptor [2]) | Structure (SMILES)
1 | 9.30 | 8.24 | COC[C@]12Cc3cnn(-c4ccc(F)cc4)c3C=C1CCN(S(=O)(=O)c1ccc(C)cc1)C2
2 | 9.10 | 8.24 | O=S(=O)(c1ccccc1)N1CCC2=Cc3c(cnn3-c3ccc(F)cc3)C[C@]2(CN2CCCCC2)C1
3 | 8.96 | 8.00 | CN(C)C[C@]12Cc3cnn(-c4ccc(F)cc4)c3C=C1CCN(S(=O)(=O)c1ccccc1)C2
4 | 8.05 | 6.53 | C[C@]12Cc3cnn(-c4ccc(F)cc4)c3C=C1CCN(S(=O)(=O)c1ccc(F)cc1)C2
5 | 9.05 | 8.17 | CCOC[C@]12Cc3cnn(-c4ccc(F)cc4)c3C=C1CCN(S(=O)(=O)c1ccc(C(F)(F)F)cc1)C2 [CORT 108297]
6 | 9.05 | 8.05 | CCCOC[C@]12Cc3cnn(-c4ccc(F)cc4)c3C=C1CCN(S(=O)(=O)c1ccc(C(F)(F)F)cc1)C2
7 | 8.77 | 7.85 | CCN(CC)C[C@]12Cc3cnn(-c4ccc(F)cc4)c3C=C1CCN(S(=O)(=O)c1ccc(C(C)(C)C)cc1)C2
8 | 9.05 | 7.96 | C=CCNC[C@]12Cc3cnn(-c4ccc(F)cc4)c3C=C1CCN(S(=O)(=O)c1ccc(C(C)(C)C)cc1)C2
9 | 8.82 | 7.77 | Cc1ccc(S(=O)(=O)N2CCC3=Cc4c(cnn4-c4ccc(F)cc4)CC3(Cc3ccc(F)cc3)C2)cc1 (racemic)
10 | 7.66 | – | Cc1ccccc1S(=O)(=O)N1CCC2=Cc3c(cnn3-c3ccc(F)cc3)C[C@]2(C)C1
11 | 7.47 | – | C[C@]12Cc3cnn(-c4ccc(F)cc4)c3C=C1CCN(S(=O)(=O)c1ccccc1F)C2

Continued, compound first:

Row | Structure (SMILES) | pKi (Glucocorticoid receptor [1]) | pKi (Glucocorticoid receptor [2])
12 | CCOC[C@]12Cc3cnn(-c4ccc(F)cc4)c3C=C1CCN(S(=O)(=O)c1ccc(C(C)(C)C)cc1)C2 | 9.10 | 8.72
13 | COCCCOC[C@]12Cc3cnn(-c4ccc(F)cc4)c3C=C1CCN(S(=O)(=O)c1ccc(C(C)(C)C)cc1)C2 | 9.10 | 8.80
14 | CC(C)(C)c1ccc(S(=O)(=O)N2CCC3=Cc4c(cnn4-c4ccc(F)cc4)C[C@]3(Cc3ccccc3)C2)cc1 | 8.85 | 8.33
15 | C[C@]12Cc3cnn(-c4ccc(F)cc4)c3C=C1CCN(S(=O)(=O)c1ccc(C(F)(F)F)cc1)C2 | 8.47 | 7.11
16 | Cc1ccc(S(=O)(=O)N2CCC3=Cc4c(cnn4-c4ccc(F)cc4)C[C@]3(C)C2)cc1 | 8.64 | 7.02
17 | C[C@]12Cc3cnn(-c4ccc(F)cc4)c3C=C1CCN(S(=O)(=O)c1ccc(N)cc1)C2 | 7.77 | < 6.00
18 | O=S(=O)(c1ccc(F)cc1)N1CCC2=Cc3c(cnn3-c3ccc(F)cc3)C[C@]2(CO)C1 | 8.07 | 6.74
19 | CC(C)(C)c1ccc(S(=O)(=O)N2CCC3=Cc4c(cnn4-c4ccc(F)cc4)C[C@]3(CO)C2)cc1 | 8.80 | 7.33
20 | CC(C)(C)c1ccc(S(=O)(=O)N2CCC3=Cc4c(cnn4-c4ccc(F)cc4)C[C@]3(COCCO)C2)cc1 | 9.10 | 8.06
21 | CC(C)(C)c1ccc(S(=O)(=O)N2CCC3=Cc4c(cnn4-c4ccc(F)cc4)C[C@]3(CN3CCCCC3)C2)cc1 | 8.80 | 8.24
22 | CC(C)(C)c1ccc(S(=O)(=O)N2CCC3=Cc4c(cnn4-c4ccc(F)cc4)CC3(Cc3ccc(F)cc3)C2)cc1 (racemic) | 8.89 | 7.85
23 | O=S(=O)(c1ccccc1)N1CCC2=Cc3c(cnn3-c3ccc(F)cc3)C[C@]2(CN2CCCC2)C1 | 8.82 | 8.31
24 | COCCOC[C@]12Cc3cnn(-c4ccc(F)cc4)c3C=C1CCN(S(=O)(=O)c1ccccc1)C2 | 9.30 | 8.54
25 | O=C(c1ccccc1)N1CCC2=Cc3c(cnn3-c3ccc(F)cc3)CC2(Cc2ccc(F)cc2)C1 (racemic) | < 6.00 | –
26 | O=S(=O)(c1ccc(N2CCOCC2)cc1)N1CCC2=Cc3c(cnn3-c3ccc(F)cc3)CC2(Cc2ccc(F)cc2)C1 (racemic) | 8.89 | 7.96
27 | Fc1ccc(CC23Cc4cnn(-c5ccc(F)cc5)c4C=C2CCN(Cc2cccnc2)C3)cc1 (racemic) | 7.66 | < 6.00
28 | O=S(=O)(c1ccccc1)N1CCC2=Cc3c(cnn3-c3ccc(F)cc3)C[C@]2(CO)C1 | 8.00 | –
